From patent US10806794B2, “Protease inhibitors having enhanced features” (priority 2008, dated 2020) come the findings set out here.

In one series the target is CYP2C9 (Homo sapiens (Human), UniProt P11712). Description: biochemical.
Series [1] can be described thus: Plasma protein binding by equilibrium dialysis, dog plasma. The series is classed as in vitro ADME. To be noted: read-out: Dog Plasma Protein Binding Fu ± SD. On the procedure:
(§1) In assays to estimate binding of test compounds to plasma proteins, test compound solutions (5 μM) are prepared in buffer and species-specific plasma (final DMSO concentration 0.5%). The plasma-containing solution is added to one side of the membrane of an equilibrium dialysis system, and the plasma-free is added to the other side. Dialysis was allowed to reach equilibrium by incubation for two hours at 37° C. The concentration of compound on both sides of the membrane was measured using LC-MS/MS.
On the technique in general: Equilibrium dialysis compares concentrations on both sides of a semipermeable membrane.

The nature of series [2]: Microsomal protein binding by equilibrium dialysis. In kind it is in vitro ADME. As to conditions: human liver microsomes, read-out: Microsomal Protein Binding Fu ± SD. The method in brief: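 Compound at 3 μM final in buffer with or without human liver microsomes, dialysed to equilibrium at 37 °C. Both sides quantified by LC-MS/MS to derive fraction unbound (Fu).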
Series [3] can be described thus: Metabolic stability in cryopreserved human hepatocytes. As to conditions: human, cryopreserved human hepatocytes, CLint ± SEM, human hepatocytes, 3 uM, incubated up to one hour. The method in brief: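 Test compounds at 0.1 μM or 3 μM incubated with cryopreserved human hepatocytes at 0.5×10^6 viable cells/mL. Sampling up to four hours (0.1 μM) or one or two hours (3 μM), methanol quench, then remaining parent measured by cassette LC-MS/MS.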

Series [4] in a line: Plasma protein binding by equilibrium dialysis, monkey plasma. To be noted: read-out: Monkey Plasma Protein Binding Fu ± SD. In kind it is in vitro ADME. On the procedure:
as §1

The nature of another series: in vitro. To be noted: human. As for the experimental part:
Absorption properties of various compounds were measured using bi-directional permeability assays in Caco-2 cells. […] The efflux ratio is calculated as the ratio of the Papp(B→A)/Papp(A→B).

Series [5] in a line: Plasma protein binding by equilibrium dialysis, rat plasma. As to conditions: read-out: Rat Plasma Protein Binding Fu ± SD. The series is classed as in vitro ADME. As for the experimental part: as §1
Series [6] in a line: Metabolic stability in Sprague-Dawley rat hepatocytes. The series is classed as in vitro ADME. As to conditions: for hepatocyte CLint at 0.1 μM: read-out: Clint ± SEM.
The nature of series [7]: Metabolic stability in beagle dog hepatocytes. The series is classed as in vitro ADME. To be noted: for hepatocyte CLint at 0.1 μM: read-out: Clint ± SEM.
Series [8] can be described thus: Plasma protein binding by equilibrium dialysis, mouse plasma. To be noted: read-out: Mouse Plasma Protein Binding Fu ± SD. The series is classed as in vitro ADME. As for the experimental part:
as §1

A further series deals with CYP3A4 (Homo sapiens (Human), UniProt P08684). In words: Metabolic stability in CYP3A4-expressing Bactosomes. The series is classed as in vitro ADME. To be noted: 5 μM. As for the experimental part: (§2) Compounds were evaluated for their propensity to act as substrates of individual human cytochrome P450 enzymes using a bacterial membrane preparation co-expressing human NADPH-cytochrome P450 reductase with either human CYP3A4 or CYP2D6 (Bactosomes™ Cypex, Ltd., Dundee, UK). In vitro metabolism studies using Bactosomes™ expressing individual human CYP isoforms monitor the extent to which a test compound is metabolized by a single CYP450 enzyme and allow identification of the CYP isoforms that may be responsible for the metabolism of a test compound. Timecourse analyses of test molecules (5 μM) with CYP2D6- or CYP3A4-expressing Bactosomes™ (100 pmol/mL) are performed in buffer (0.1 M phosphate, pH 7.4) in a final reaction volume of 25 μL. […] Reactions are terminated by the addition of methanol (50 μL) containing internal standard at 0, 5, 15, 30, and 45 minutes.

The next series concerns the target CYP2D6 (Homo sapiens (Human), UniProt P10635). In words: Metabolic stability in CYP2D6-expressing Bactosomes. In kind it is in vitro ADME. To be noted: 5 μM. On the procedure:
as §2

A further series relates to CEM-SS cells. On the procedure:
To evaluate whether conjugated protease inhibitors retain the ability to protect against HIV-1 infection, CEM-SS cells infected with the RF strain of HIV-1 were treated with test compounds for six days, and then cell viability was monitored using the tetrazolium dye XTT. […] A value for Therapeutic Index (TI) was calculated as TC50/EC50.

The nature of series [9]: Metabolic stability in cynomolgus monkey hepatocytes. The series is classed as in vitro ADME. To be noted: cynomolgus monkey.

The structures appear in SMILES notation.

Chain of CYP2C9 (P11712 whole entry): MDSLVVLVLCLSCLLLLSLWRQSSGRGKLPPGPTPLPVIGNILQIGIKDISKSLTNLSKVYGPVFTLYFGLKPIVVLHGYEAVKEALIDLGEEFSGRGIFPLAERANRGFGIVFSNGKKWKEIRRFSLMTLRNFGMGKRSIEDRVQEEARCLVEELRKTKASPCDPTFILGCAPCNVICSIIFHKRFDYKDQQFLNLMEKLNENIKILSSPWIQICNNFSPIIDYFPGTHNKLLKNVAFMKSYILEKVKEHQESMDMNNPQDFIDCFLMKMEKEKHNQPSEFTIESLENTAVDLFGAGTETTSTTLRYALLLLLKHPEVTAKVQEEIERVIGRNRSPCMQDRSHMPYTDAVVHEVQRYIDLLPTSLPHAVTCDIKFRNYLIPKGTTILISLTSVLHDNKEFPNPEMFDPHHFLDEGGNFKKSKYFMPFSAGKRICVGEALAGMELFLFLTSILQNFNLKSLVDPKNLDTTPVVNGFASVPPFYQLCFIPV
Chain of CYP2D6 (P10635 whole entry): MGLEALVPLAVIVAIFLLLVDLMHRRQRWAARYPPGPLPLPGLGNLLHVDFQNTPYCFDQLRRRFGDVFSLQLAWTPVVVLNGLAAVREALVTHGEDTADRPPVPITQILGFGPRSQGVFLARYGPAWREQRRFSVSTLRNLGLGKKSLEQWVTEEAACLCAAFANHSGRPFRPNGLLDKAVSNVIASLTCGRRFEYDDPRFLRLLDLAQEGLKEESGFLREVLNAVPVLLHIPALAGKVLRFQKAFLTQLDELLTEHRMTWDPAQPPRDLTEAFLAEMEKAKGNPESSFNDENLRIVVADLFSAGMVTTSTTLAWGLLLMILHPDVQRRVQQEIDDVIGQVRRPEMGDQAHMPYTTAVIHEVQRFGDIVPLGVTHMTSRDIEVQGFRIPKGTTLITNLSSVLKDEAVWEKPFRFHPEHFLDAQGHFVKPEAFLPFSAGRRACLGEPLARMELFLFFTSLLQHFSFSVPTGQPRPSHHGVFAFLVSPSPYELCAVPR
Chain of CYP3A4 (P08684 whole entry, canonical isoform): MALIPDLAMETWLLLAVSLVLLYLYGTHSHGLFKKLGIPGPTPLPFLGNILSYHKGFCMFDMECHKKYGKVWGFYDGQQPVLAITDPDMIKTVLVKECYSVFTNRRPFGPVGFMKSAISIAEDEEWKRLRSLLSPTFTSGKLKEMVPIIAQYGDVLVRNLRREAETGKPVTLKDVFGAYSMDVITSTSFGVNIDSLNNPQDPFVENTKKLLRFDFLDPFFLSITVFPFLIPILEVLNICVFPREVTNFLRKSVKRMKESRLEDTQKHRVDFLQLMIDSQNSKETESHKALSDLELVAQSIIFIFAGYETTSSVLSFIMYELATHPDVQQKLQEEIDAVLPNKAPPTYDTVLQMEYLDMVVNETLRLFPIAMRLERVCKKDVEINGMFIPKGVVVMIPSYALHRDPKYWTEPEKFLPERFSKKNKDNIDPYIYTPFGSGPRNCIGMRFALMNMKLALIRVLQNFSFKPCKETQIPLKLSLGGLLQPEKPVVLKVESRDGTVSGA

As a reminder, the IC50 is the point on the concentration scale where inhibition reaches its midpoint. The Papp A→B is how fast a substance crosses the layer from the apical side. As usually defined, the half-life is the time in which the quantity being followed falls by half. Take `COC(=O)N[C@H](C(=O)N[C@@H](Cc1ccccc1)[C@@H](O)CN(Cc1ccc(-c2ccccn2)cc1)NC(=O)[C@@H](NC(=O)OC)C(C)(C)C)C(C)(C)C` [Atazanavir, reference compound]: the half-inhibitory concentration (IC50) against CYP2C9 stood at 10.3 µM. Besides, the fraction unbound at 2 h, 5 μM in [1] was determined as 0.139 ± 0.0167; in [4], 0.201 ± 0.0183; in [5], 0.079 ± 0.00684; in series [8] it was 0.0574 ± 0.00286. In series [2], the fraction unbound at 3 μM came to 0.846 ± 0.0308. Besides, the hepatocyte CLint at 3 μM in [3] worked out at 5.15 ± 1.13 µL/min/1e6 cells. Further, the apical-to-basolateral permeability (Papp A→B) in “in vitro” (Caco-2, A→B, ×10^−6) is 2.05 ×10⁻⁶ cm/s. Also, the half-life at 0.1 μM in series [6] worked out at 0.228 h; in series [7] it was 12.6 h. The hepatocyte CLint at 0.1 μM turned out to be 101 ± 0.00802 µL/min/1e6 cells in series [6] and 1.83 ± 0.000561 µL/min/1e6 cells in series [7].

In the series “in vitro” (Caco-2), `CC(C)CN(C[C@@H](O)[C@H](Cc1ccccc1)NC(=O)O[C@H]1CO[C@H]2OCC[C@H]21)S(=O)(=O)c1ccc(N)cc1` [Darunavir, reference compound] registered an apical-to-basolateral permeability (Papp A→B) of 2.55 ×10⁻⁶ cm/s.

`COCCOCCOCCOCCOCCNc1ccc(S(=O)(=O)N(CC(C)C)CC(O)[C@H](Cc2ccccc2)NC(=O)O[C@H]2CO[C@H]3OCC[C@H]32)cc1` (stereo partly drawn) [mPEG5-N-Darunavir]: the “3A4 t1/2 ± SEM” value at CYP3A4 was determined as 0.623 ± 0.0797 h. Moreover, at CYP2D6, the “2D6 t1/2 ± SEM” value turned out to be 0.827 ± 0.0438 h.

With `COCCOCCOCCOCCOCCOCCOCCNc1ccc(S(=O)(=O)N(CC(C)C)CC(O)[C@H](Cc2ccccc2)NC(=O)O[C@H]2CO[C@H]3OCC[C@H]32)cc1` (stereo partly drawn) [mPEG7-N-Darunavir], the “3A4 t1/2 ± SEM” value at CYP3A4 came to 0.232 ± 0.032 h. Besides, the “2D6 t1/2 ± SEM” value at CYP2D6 was determined as 0.485 ± 0.0325 h.

On to `COCCOC(=O)NC(C(=O)NC(Cc1ccccc1)C(O)CN(Cc1ccc(-c2ccccn2)cc1)NC(=O)C(NC(=O)OC)C(C)(C)C)C(C)(C)C` (stereo not drawn) [mono-mPEG1-Atazanavir], for which, in the series with CEM-SS cells, the “CEM-SS TC50 ± SD” value stood at 49.1 ± 6.4 µM.

Broadly, the efflux ratio is a quotient of directional permeabilities that is used to spot active efflux. On to `COCCOCCOCCOC(=O)NC(C(=O)NC(Cc1ccccc1)C(O)CN(Cc1ccc(-c2ccccn2)cc1)NC(=O)C(NC(=O)OC)C(C)(C)C)C(C)(C)C` (stereo not drawn) [mono-mPEG3-Atazanavir, {1-[N′-[2-Hydroxy-3-(2-{2-[2-(2-methoxy-ethoxy)-ethoxy]-ethoxycarbonylamino}-3,3-dimethyl-butyrylamino)-4-phenyl-butyl]-N′-(4-pyridin-2-yl-benzyl)-hydrazinocarbonyl]-2,2-dimethyl-propyl}-carbamic Acid Methyl Ester], for which the 50% inhibitory concentration (IC50) against CYP2C9 worked out at 24.6 µM. Moreover, the fraction unbound at 2 h, 5 μM in series [1] amounted to 0.252 ± 0.0397; in [4], 0.204 ± 0.196; in series [5], 0.138 ± 0.0104; in series [8] it was 0.159 ± 0.0161. Besides, in series [2], the fraction unbound at 3 μM was determined as 0.852 ± 0.0495. In addition, the half-life at 0.1 μM in [9] stood at 1.66 h; in series [6] it was 1.95 h; in [7], 1.43 h. The hepatocyte CLint at 0.1 μM in series [9] (read-out: Clint ± SEM) was found to be 13.9 ± 0.904 µL/min/1e6 cells; in series [6] it was 11.9 ± 0.00223 µL/min/1e6 cells; in [7], 16.1 ± 0.000914 µL/min/1e6 cells. Besides, the efflux ratio in the series “in vitro” (Caco-2) is 44. Besides, the apparent permeability from apical to basolateral (Papp A→B) in the series “in vitro” (Caco-2, A→B, ×10^−6) worked out at 0.53 ×10⁻⁶ cm/s.

In the case of `COCCOCCOCCOCCOCCOCCOCCOC(=O)NC(C(=O)NC(Cc1ccccc1)C(O)CN(Cc1ccc(-c2ccccn2)cc1)NC(=O)C(NC(=O)OC)C(C)(C)C)C(C)(C)C` (stereo not drawn) [mono-mPEG7-Atazanavir], the “CEM-SS TC50 ± SD” value in the series with CEM-SS cells worked out at 133.8 ± 24.5 µM.
